Experimental data from ChEMBL document CHEMBL1201862, “PubChem BioAssay data set” (2004).
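Protocol summary: plate cells (96-well), add compound at 5 concentrations, incubate 48 h, interpolate endpoints linearly. Abbreviation: GI50, concentration required for 50% inhibition of growth.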 Calls of active or inactive are those of the source. Rule as the data show it: active = GI50 up to about 1.1 µM and inactive = higher.

Columns and labels:
Assay in all cases: inhibition of tumour cell growth, NCI panel, 48 h
[1] = system: SF-539
[2] = system: SK-MEL-5
[3] = system: OVCAR-5
[4] = system: CCRF-CEM
[5] = system: K562
[6] = system: NCI-H23
[7] = system: NCI/ADR-RES
[8] = system: M14
[9] = system: HCT-15
[10] = system: HT-29
[11] = system: SK-OV-3
[12] = system: SF-295
[13] = system: RXF 393
[14] = system: RPMI-8226
[15] = system: HOP-92
[16] = system: MDA-N
[17] = system: NCI-H460
[18] = system: SW-620
[19] = system: NCI-H522
[20] = system: HOP-62

Structure (SMILES) | GI50 [1] | GI50 [2] | GI50 [3] | GI50 [4] | GI50 [5] | GI50 [6] | GI50 [7] | GI50 [8] | GI50 [9] [µM] | GI50 [10] | GI50 [11] | GI50 [12] | GI50 [13] | GI50 [14] | GI50 [15] | GI50 [16] | GI50 [17] | GI50 [18] | GI50 [19] | GI50 [20]
c1ccc2nc3c(nc2c1)sc1nc2ccccc2n13 | > 100 µM (inactive) | > 100 µM (inactive) | > 100 µM (inactive) | > 100 µM (inactive) | > 100 µM (inactive) | > 100 µM (inactive) | > 100 µM (inactive) | > 100 µM (inactive) | > 100 | > 100 µM (inactive) | > 100 µM (inactive) | 45 µM (inactive) | 28.4 µM (inactive) | > 100 µM (inactive) | 57 µM (inactive) | > 100 µM (inactive) | > 100 µM (inactive) | – | – | –
Cc1ccccc1C1OC1C(=O)c1ccccc1N (stereo not drawn) | 29.9 µM (inactive) | 44.5 µM (inactive) | > 100 µM (inactive) | > 100 µM (inactive) | 56.8 µM (inactive) | 38.6 µM (inactive) | 51.3 µM (inactive) | 47.3 µM (inactive) | 53.3 | 45.3 µM (inactive) | > 100 µM (inactive) | – | 90.4 µM (inactive) | 46.7 µM (inactive) | > 100 µM (inactive) | 14.1 µM (inactive) | 63.8 µM (inactive) | 80.4 µM (inactive) | – | –
O=c1c2sc3ccccc3sc=2c(=O)c2c(Cl)c(Cl)c(Cl)c(Cl)c12 | – | > 100 µM (inactive) | > 100 µM (inactive) | > 100 µM (inactive) | 34.8 µM (inactive) | > 100 µM (inactive) | > 100 µM (inactive) | > 100 µM (inactive) | 39.7 | > 100 µM (inactive) | > 100 µM (inactive) | > 100 µM (inactive) | > 100 µM (inactive) | 42 µM (inactive) | – | > 100 µM (inactive) | > 100 µM (inactive) | > 100 µM (inactive) | > 100 µM (inactive) | > 100 µM (inactive)
COc1cc2oc(=O)cc(C)c2c(OC)c1OC(C)=O | – | > 100 µM (inactive) | > 100 µM (inactive) | > 100 µM (inactive) | > 100 µM (inactive) | > 100 µM (inactive) | > 100 µM (inactive) | > 100 µM (inactive) | > 100 | > 100 µM (inactive) | > 100 µM (inactive) | > 100 µM (inactive) | – | > 100 µM (inactive) | – | > 100 µM (inactive) | – | > 100 µM (inactive) | – | > 100 µM (inactive)
CC1=C2CC(C)(C)CC(=O)C2(C)CCC1=O (stereo not drawn) | > 100 µM (inactive) | > 100 µM (inactive) | > 100 µM (inactive) | > 100 µM (inactive) | > 100 µM (inactive) | > 100 µM (inactive) | > 100 µM (inactive) | > 100 µM (inactive) | > 100 | > 100 µM (inactive) | > 100 µM (inactive) | > 100 µM (inactive) | – | 3.02 µM (inactive) | – | > 100 µM (inactive) | > 100 µM (inactive) | > 100 µM (inactive) | > 100 µM (inactive) | > 100 µM (inactive)
Cc1c2c(n(CCc3ccccc3)c1C)N(C)N=C(C#N)S2(=O)=O | 7.69 µM (inactive) | > 100 µM (inactive) | > 100 µM (inactive) | – | > 10 µM (inactive) | > 100 µM (inactive) | > 100 µM (inactive) | > 100 µM (inactive) | > 100 | > 100 µM (inactive) | > 100 µM (inactive) | > 100 µM (inactive) | > 100 µM (inactive) | > 100 µM (inactive) | – | > 100 µM (inactive) | > 100 µM (inactive) | > 100 µM (inactive) | > 100 µM (inactive) | > 100 µM (inactive)
CC(=O)NC(C)(C)C1CC=C(C)CC1 (stereo not drawn) | > 100 µM (inactive) | > 100 µM (inactive) | > 100 µM (inactive) | > 100 µM (inactive) | > 100 µM (inactive) | > 100 µM (inactive) | > 100 µM (inactive) | > 100 µM (inactive) | > 100 | > 100 µM (inactive) | > 100 µM (inactive) | > 100 µM (inactive) | > 100 µM (inactive) | > 100 µM (inactive) | – | > 100 µM (inactive) | > 100 µM (inactive) | > 100 µM (inactive) | – | > 100 µM (inactive)
COc1ccc2nc3cc(Cl)ccc3c(NCCCNCc3cc(OC)c(OC)c(OC)c3)c2c1 | 1.87 µM (inactive) | 1.4 µM (inactive) | 1.69 µM (inactive) | 0.865 µM (active) | 0.465 µM (active) | 1.71 µM (inactive) | 2.08 µM (inactive) | 1.65 µM (inactive) | 1.54 | 1.01 µM (active) | 1.81 µM (inactive) | 1.51 µM (inactive) | 1.46 µM (inactive) | 1.53 µM (inactive) | – | 1.82 µM (inactive) | 1.64 µM (inactive) | 0.733 µM (active) | 1.5 µM (inactive) | 1.32 µM (inactive)
CC1C2CC(CC2N)C1(C)C (stereo not drawn) | > 100 µM (inactive) | > 100 µM (inactive) | > 100 µM (inactive) | > 100 µM (inactive) | > 100 µM (inactive) | > 100 µM (inactive) | – | > 100 µM (inactive) | – | > 100 µM (inactive) | > 100 µM (inactive) | > 100 µM (inactive) | – | – | > 100 µM (inactive) | > 100 µM (inactive) | > 100 µM (inactive) | > 100 µM (inactive) | > 100 µM (inactive) | > 100 µM (inactive)
CCN(CC)CCCNC(=O)c1cc2cc(NC(=O)c3cc4cc([N+](=O)[O-])ccc4[nH]3)ccc2[nH]1 | 48.5 µM (inactive) | > 100 µM (inactive) | > 100 µM (inactive) | – | > 100 µM (inactive) | > 100 µM (inactive) | > 100 µM (inactive) | > 100 µM (inactive) | > 100 | 35 µM (inactive) | > 100 µM (inactive) | 44.3 µM (inactive) | > 100 µM (inactive) | 16.9 µM (inactive) | 37.5 µM (inactive) | 70.1 µM (inactive) | > 100 µM (inactive) | 68.2 µM (inactive) | – | 28.6 µM (inactive)
CCOC(=O)C1(Cc2ccccc2)Cc2cc3c(cc2C1=O)CCC3 (stereo not drawn) | > 100 µM (inactive) | > 100 µM (inactive) | > 100 µM (inactive) | > 100 µM (inactive) | > 100 µM (inactive) | > 100 µM (inactive) | > 100 µM (inactive) | 92 µM (inactive) | > 100 | > 100 µM (inactive) | > 100 µM (inactive) | > 100 µM (inactive) | > 100 µM (inactive) | > 100 µM (inactive) | > 100 µM (inactive) | > 100 µM (inactive) | > 100 µM (inactive) | > 100 µM (inactive) | – | > 100 µM (inactive)
CC(=O)Oc1c2oc3ccc(Cl)cc3c(=O)c2c(O)c2ccsc12 | > 100 µM (inactive) | > 100 µM (inactive) | > 100 µM (inactive) | 86.1 µM (inactive) | 60.7 µM (inactive) | > 100 µM (inactive) | > 100 µM (inactive) | > 100 µM (inactive) | > 100 | > 100 µM (inactive) | > 100 µM (inactive) | > 100 µM (inactive) | > 100 µM (inactive) | > 100 µM (inactive) | > 100 µM (inactive) | > 100 µM (inactive) | > 100 µM (inactive) | > 100 µM (inactive) | – | > 100 µM (inactive)
COc1ccc(NC2Oc3cc4c(cc3C(c3cccc(OC)c3OC)C2C)OCO4)cc1 (stereo not drawn) | 17.7 µM (inactive) | 13.6 µM (inactive) | 19.2 µM (inactive) | 3.61 µM (inactive) | 4.21 µM (inactive) | 11.9 µM (inactive) | – | 6.04 µM (inactive) | 2.96 | 6.85 µM (inactive) | 70 µM (inactive) | 3.73 µM (inactive) | 3.72 µM (inactive) | 11.4 µM (inactive) | 3.32 µM (inactive) | 7.89 µM (inactive) | 5.86 µM (inactive) | 5.83 µM (inactive) | 6.24 µM (inactive) | 32.9 µM (inactive)
Cc1ccccc1N(C)S(=O)(=O)c1ccccc1[N+](=O)[O-] | 36.5 µM (inactive) | 15.4 µM (inactive) | 66.7 µM (inactive) | 35.8 µM (inactive) | 28.7 µM (inactive) | 31.5 µM (inactive) | 25.1 µM (inactive) | 20.8 µM (inactive) | 57.9 | 32.2 µM (inactive) | 53.6 µM (inactive) | 42.5 µM (inactive) | 21.3 µM (inactive) | 30.1 µM (inactive) | – | 45.5 µM (inactive) | 36.1 µM (inactive) | 84.1 µM (inactive) | 36.1 µM (inactive) | 48.2 µM (inactive)
CC(=O)NC(CCCOC(C)=O)C(=O)NC(CCCOC(C)=O)C(=O)NC(CCCOC(C)=O)C(=O)NC(Cc1ccc([N+](=O)[O-])cc1)C(=O)NCC(=O)OCc1ccccc1 (stereo not drawn) | > 100 µM (inactive) | > 100 µM (inactive) | > 100 µM (inactive) | > 100 µM (inactive) | > 100 µM (inactive) | > 100 µM (inactive) | > 100 µM (inactive) | > 100 µM (inactive) | > 100 | > 100 µM (inactive) | > 100 µM (inactive) | > 100 µM (inactive) | > 100 µM (inactive) | > 100 µM (inactive) | > 100 µM (inactive) | – | > 100 µM (inactive) | > 100 µM (inactive) | > 100 µM (inactive) | > 100 µM (inactive)
N#CC1Nc2ccccc2[C@@H](O)C1O (stereo partly drawn) | > 100 µM (inactive) | > 100 µM (inactive) | > 100 µM (inactive) | > 100 µM (inactive) | > 100 µM (inactive) | > 100 µM (inactive) | > 100 µM (inactive) | > 100 µM (inactive) | > 100 | > 100 µM (inactive) | > 100 µM (inactive) | > 100 µM (inactive) | > 100 µM (inactive) | > 100 µM (inactive) | > 100 µM (inactive) | > 100 µM (inactive) | > 100 µM (inactive) | > 100 µM (inactive) | – | > 100 µM (inactive)
